Drawing on ChEMBL document CHEMBL1138550, “Adamantane derivatives of thiazolyl-N-substituted amide, as possible non-steroidal anti-inflammatory agents” (2009), this text covers inhibition and inhibition in vivo for 22 compounds.

A word on the inhibition: it is the relative decrease from the control value, in per cent. As usually defined, the inhibition in vivo is the drop in the measured response relative to a control, in per cent.

The target of the first test is T1, Prostaglandin G/H synthase 2 (Homo sapiens) (UniProt P35354).
T1 sequence (whole entry): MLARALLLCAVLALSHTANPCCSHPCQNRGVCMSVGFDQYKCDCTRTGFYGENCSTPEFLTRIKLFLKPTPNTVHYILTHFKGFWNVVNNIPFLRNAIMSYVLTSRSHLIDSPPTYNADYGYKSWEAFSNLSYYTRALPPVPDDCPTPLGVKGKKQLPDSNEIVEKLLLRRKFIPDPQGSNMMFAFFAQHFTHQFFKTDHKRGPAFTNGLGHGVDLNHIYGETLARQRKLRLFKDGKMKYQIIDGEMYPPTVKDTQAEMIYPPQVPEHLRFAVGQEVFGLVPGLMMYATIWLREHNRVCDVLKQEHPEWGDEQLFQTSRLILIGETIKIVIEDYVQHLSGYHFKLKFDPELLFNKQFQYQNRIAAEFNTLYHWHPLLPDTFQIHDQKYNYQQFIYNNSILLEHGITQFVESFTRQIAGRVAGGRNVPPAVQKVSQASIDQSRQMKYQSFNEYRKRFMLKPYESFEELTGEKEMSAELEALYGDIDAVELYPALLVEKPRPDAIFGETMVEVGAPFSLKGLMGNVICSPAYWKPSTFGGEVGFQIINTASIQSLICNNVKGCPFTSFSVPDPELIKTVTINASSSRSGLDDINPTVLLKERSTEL
Kind of test: Inhibition of human recombinant COX2 at 20 uM by enzyme immuno assay.
`O=C(CCN1CCN(c2ccccc2)CC1)Nc1nc(C23CC4CC(CC(C4)C2)C3)cs1`: the inhibition worked out at 17.3%.

In the next test the target is T2, Prostaglandin G/H synthase 1 (Ovis aries) (UniProt P05979).
T2 sequence (whole entry): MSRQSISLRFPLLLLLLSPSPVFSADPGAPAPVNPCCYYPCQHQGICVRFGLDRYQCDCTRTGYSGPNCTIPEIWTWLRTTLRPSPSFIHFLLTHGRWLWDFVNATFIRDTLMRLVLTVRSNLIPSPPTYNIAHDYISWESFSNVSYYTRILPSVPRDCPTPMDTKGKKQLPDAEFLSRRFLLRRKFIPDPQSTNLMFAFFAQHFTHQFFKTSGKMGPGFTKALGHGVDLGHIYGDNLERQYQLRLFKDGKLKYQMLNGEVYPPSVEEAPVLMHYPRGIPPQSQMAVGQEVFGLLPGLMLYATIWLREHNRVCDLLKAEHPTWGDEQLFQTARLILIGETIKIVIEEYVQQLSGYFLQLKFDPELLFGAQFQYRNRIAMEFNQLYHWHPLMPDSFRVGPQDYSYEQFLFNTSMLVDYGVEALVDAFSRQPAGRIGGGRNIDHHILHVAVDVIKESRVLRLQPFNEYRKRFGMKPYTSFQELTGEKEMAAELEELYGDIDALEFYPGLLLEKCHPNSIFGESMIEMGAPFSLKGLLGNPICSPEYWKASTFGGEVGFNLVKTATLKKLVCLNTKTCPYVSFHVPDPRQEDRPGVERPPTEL
Kind of test: Inhibition of ovine COX1 at 20 uM by enzyme immuno assay.
`O=C(CCN1CCN(c2ccccc2)CC1)Nc1nc(C23CC4CC(CC(C4)C2)C3)cs1` came in with an inhibition of 28.6%.

For another test, the target named is T3, Seed linoleate 13S-lipoxygenase-1 (Glycine max) (UniProt P08170).
T3 sequence (whole entry): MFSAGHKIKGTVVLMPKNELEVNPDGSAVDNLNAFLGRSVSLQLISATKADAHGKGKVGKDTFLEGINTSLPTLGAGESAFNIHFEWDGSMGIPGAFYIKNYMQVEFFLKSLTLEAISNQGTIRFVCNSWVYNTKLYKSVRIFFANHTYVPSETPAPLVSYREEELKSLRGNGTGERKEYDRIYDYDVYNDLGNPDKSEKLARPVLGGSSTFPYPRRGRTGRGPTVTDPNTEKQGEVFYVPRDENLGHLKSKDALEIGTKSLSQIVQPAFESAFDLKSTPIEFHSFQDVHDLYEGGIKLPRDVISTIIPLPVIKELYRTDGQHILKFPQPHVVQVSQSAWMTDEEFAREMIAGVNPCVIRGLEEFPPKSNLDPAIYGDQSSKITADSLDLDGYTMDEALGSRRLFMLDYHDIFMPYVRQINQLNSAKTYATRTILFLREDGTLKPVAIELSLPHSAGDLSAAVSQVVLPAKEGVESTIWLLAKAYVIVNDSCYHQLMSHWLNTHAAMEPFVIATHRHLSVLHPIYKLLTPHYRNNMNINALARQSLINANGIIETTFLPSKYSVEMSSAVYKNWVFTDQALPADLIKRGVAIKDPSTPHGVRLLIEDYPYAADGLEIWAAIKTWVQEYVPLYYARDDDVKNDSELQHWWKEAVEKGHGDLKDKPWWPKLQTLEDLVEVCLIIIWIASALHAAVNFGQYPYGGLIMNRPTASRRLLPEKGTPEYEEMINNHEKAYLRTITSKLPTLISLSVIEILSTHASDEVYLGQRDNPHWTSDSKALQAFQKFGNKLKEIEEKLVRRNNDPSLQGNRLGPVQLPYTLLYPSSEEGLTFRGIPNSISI
Nature of the test: Inhibition of soybean LOX1 at 100 uM.
Compound `O=C(CN1CCOCC1)Nc1nc(C23CC4CC(CC(C4)C2)C3)cs1` returned an inhibition of 0%. Still for that read-out and setting: as for `O=C(CN1CCCCC1)Nc1nc(C23CC4CC(CC(C4)C2)C3)cs1`, the figure is 0%; as for `CN(C)CC(=O)Nc1nc(C23CC4CC(CC(C4)C2)C3)cs1`, 26.4%. On the same count and under the same terms, in the case of `O=C(CN1CCN(c2ccccc2)CC1)Nc1nc(C23CC4CC(CC(C4)C2)C3)cs1` it was 33%; in that of `O=C(CN1CCCC1)Nc1nc(C23CC4CC(CC(C4)C2)C3)cs1`, 5%; in that of `O=C(CCN1CCN(c2ccccc2)CC1)Nc1nc(C23CC4CC(CC(C4)C2)C3)cs1`, 39%.

Compound `O=C(CCN1CCOCC1)Nc1nc(C23CC4CC(CC(C4)C2)C3)cs1` registered an inhibition of 8.4%.

As for `CN(C)CCC(=O)Nc1nc(C23CC4CC(CC(C4)C2)C3)cs1`, the inhibition worked out at 1%.

In the next test the test system is Rattus norvegicus. Kind of test: Antiinflammatory activity in AKR rat assessed as inhibition of carrageenan-induced right hind paw oedema at 0.2 mmol/kg, ip coadministered with carrageenan relative to control. The class given is functional. On the technique in general: The carrageenan paw model is a standard test of acute inflammation.
With `COc1ccc(-c2csc(NC(=O)CCN3CCCC3)n2)cc1`, the inhibition in vivo at 200 µmol/kg is 56.2%.

As to `O=C(CCN1CCCC1)Nc1nccs1`, the inhibition in vivo at 200 µmol/kg was determined as 64.1%.

`O=C(CCN1CCCC1)Nc1nc(C23CC4CC(CC(C4)C2)C3)cs1`: the inhibition in vivo at 200 µmol/kg was 36.8%. Same read-out and setting: as for `O=C(CN1CCN(c2ccccc2)CC1)Nc1nccs1`, the figure is 72.1%. Still for that read-out and setting: in the case of `O=C(CN1CCOCC1)Nc1nc(C23CC4CC(CC(C4)C2)C3)cs1` it was 57.8%. For `COc1ccc(-c2csc(NC(=O)CN3CCCC3)n2)cc1`, the inhibition in vivo at 200 µmol/kg turned out to be 55%. Same read-out and setting: as for `O=C(CN1CCCC1)Nc1nc(-c2ccccc2)cs1`, the figure is 49.2%; as for `O=C(CN1CCCCC1)Nc1nc(C23CC4CC(CC(C4)C2)C3)cs1`, 26.6%; as for `Cc1csc(NC(=O)CN(C)C)n1`, 37.6%. The same measure, in the same setting: as for `COc1ccc(-c2csc(NC(=O)CN3CCCCC3)n2)cc1`, the figure is 53.3%; as for `CN(C)CC(=O)Nc1nc(C23CC4CC(CC(C4)C2)C3)cs1`, 48%; as for `O=C(CN1CCN(c2ccccc2)CC1)Nc1nc(C23CC4CC(CC(C4)C2)C3)cs1`, 47.6%. Still for that read-out and setting: in the case of `O=C(CN1CCCC1)Nc1nc(C23CC4CC(CC(C4)C2)C3)cs1` it was 69.7%; in that of `O=C(CCN1CCN(c2ccccc2)CC1)Nc1nc(C23CC4CC(CC(C4)C2)C3)cs1`, 55.9%. Consider `CN(C)CC(=O)Nc1nc(-c2ccccc2)cs1`, for which the inhibition in vivo at 200 µmol/kg was found to be 52%. On the same count and under the same terms, as for `O=C(CCN1CCOCC1)Nc1nc(C23CC4CC(CC(C4)C2)C3)cs1`, the figure is 49.2%; as for `CN1CCN(CC(=O)Nc2nc(C34CC5CC(CC(C5)C3)C4)cs2)CC1`, 30%.

With `CN(C)CC(=O)Nc1nccs1`, the inhibition in vivo at 200 µmol/kg amounted to 28.4%. Still for that read-out and setting: in the case of `O=C(CCN1CCCC1)Nc1nc(-c2ccccc2)cs1` it was 68.4%. The same measure, in the same setting: in the case of `COc1ccc(-c2csc(NC(=O)CN(C)C)n2)cc1` it was 35%; in that of `CN(C)CCC(=O)Nc1nc(C23CC4CC(CC(C4)C2)C3)cs1`, 81.5%. On the same count and under the same terms, in the case of `COc1ccc(-c2csc(NC(=O)CCN3CCOCC3)n2)cc1` it was 55.4%.

A further test concerns the target T2, Prostaglandin G/H synthase 1 (Ovis aries). Nature of the test: Inhibition of ovine COX1 at 200 uM by enzyme immuno assay.
Compound `O=C(CN1CCOCC1)Nc1nc(C23CC4CC(CC(C4)C2)C3)cs1` registered an inhibition of 27.9%. Still for that read-out and setting: as for `CN(C)CC(=O)Nc1nc(C23CC4CC(CC(C4)C2)C3)cs1`, the figure is 25%; as for `O=C(CN1CCN(c2ccccc2)CC1)Nc1nc(C23CC4CC(CC(C4)C2)C3)cs1`, 43.6%; as for `O=C(CN1CCCC1)Nc1nc(C23CC4CC(CC(C4)C2)C3)cs1`, 33.6%. Same read-out and setting: in the case of `CN(C)CCC(=O)Nc1nc(C23CC4CC(CC(C4)C2)C3)cs1` it was 25%.

The target in a further test is T1, Prostaglandin G/H synthase 2 (Homo sapiens). Nature of the test: Inhibition of human recombinant COX2 at 200 uM by enzyme immuno assay.
`O=C(CN1CCOCC1)Nc1nc(C23CC4CC(CC(C4)C2)C3)cs1`: the inhibition was determined as 35.3%. On to `CN(C)CC(=O)Nc1nc(C23CC4CC(CC(C4)C2)C3)cs1`, for which the inhibition came out at 3.6%.

Regarding `O=C(CN1CCN(c2ccccc2)CC1)Nc1nc(C23CC4CC(CC(C4)C2)C3)cs1`, the inhibition turned out to be 15.8%. On the same count and under the same terms, in the case of `O=C(CN1CCCC1)Nc1nc(C23CC4CC(CC(C4)C2)C3)cs1` it was 12.2%. Consider `CN(C)CCC(=O)Nc1nc(C23CC4CC(CC(C4)C2)C3)cs1`, for which the inhibition was 8.6%.
